The values below come from patent US10273266B2, “Multi-functional peptide benefiting expression, purification, stabilization and catalytic efficiency of recombinant proteins” (priority 2017, dated 2019).

Common to all, as to format: biochemical
Test [1] concerns the target Pseudomonas aeruginosa BBE lipoxygenase (LOX, EC 1.13.11.12), wild-type, gene SEQ ID NO.6 (Pseudomonas aeruginosa, UniProt Q9I4G8). As to the kind of experiment: Lipoxygenase kinetics with linoleic acid, wild-type LOX. The settings on record: pH 7.5, 25° C., Value ± SD. From the text:
(§1) The nucleotide sequence of PGL gene from Bacillus subtilis WSHB04-02 is shown as SEQ ID NO.4. The nucleotide sequence of LOX gene from Pseudomonas aeruginosa BBE is shown as SEQ ID NO.6. The nucleotide sequence of GFP gene from Aequorea victoria is shown as SEQ ID NO.8. E. coli JM109 was used as the host strain for cloning. E. coli BL21 (DE3) and E. coli Rosetta (DE3) were used as the expression hosts. The pET-22b (+) plasmid was used for expressing the recombinant proteins.
(§2) Linoleic acid was dispersed in 0.15 M K2HPO4—KH2PO4 buffer (pH 7.5). The substrate solution was freshly prepared daily and saturated with oxygen for 5 min before testing. Standard analytical mixture (3 mL) contains 0.3 mM linoleic acid and about 1.67 μg/mL enzyme. One unit of activity was defined as enzyme required to synthesis 1 μmol hydroperoxide per min at 25° C. Hydroperoxidaton was determined at 234 nm in a spectrophotometer (UV-2450; Shimadzu Co., Kyoto, Japan). The initial linear part of the wave was used to calculate enzyme activity.

The target in test [2] is Pseudomonas aeruginosa BBE lipoxygenase LOX-S1v1 (fused to self-assembling amphipathic peptide S1v1, […], SEQ ID NO.1), LOX gene SEQ ID NO.6 (Pseudomonas aeruginosa, UniProt Q9I4G8). Kind of test: Lipoxygenase kinetics with linoleic acid, LOX-S1v1.
Text: (§3) FIG. 1. (A) Genetic constructs of the His-tag fusion proteins; (B) Genetic constructs of the S1v1 fusion proteins. S1v1, AEAEAHAHAEAEAHAH; linker, PTPPTTPTPPTTPTPT; His-tag, HHHHHH; Enzymes represented the encoding gene of three proteins (pgl, lox and gfp, respectively) used in this study.
as §1, §2
(2) The LOX gene (shown in SEQ ID NO. 6) was cloned into the recombinant vector pET-22b(+)/S1v1 at the restriction NcoI and XhoI sites to construct a recombinant plasmid pET-22b(+)/lox-S1v1.

Test [3] deals with Pseudomonas aeruginosa BBE lipoxygenase LOX-His (His-tag HHHHHH fusion), gene SEQ ID NO.6 (Pseudomonas aeruginosa, UniProt Q9I4G8). As to the kind of experiment: Lipoxygenase kinetics with linoleic acid, LOX-His. The settings on record: pH 7.5, 25° C., Value ± SD.
Text: as §3, §1, §2

Where [4] appears, read: increase of LOX-S1v1 than that of the wild-type LOX.
Setting [5] is: linoleic acid, LOX-S1v1, pH 7.5, 25° C., Value ± SD.

By Km is commonly meant the substrate concentration at which the rate is half of its maximum.

Chain of Pseudomonas aeruginosa BBE lipoxygenase LOX-S1v1 (fused to self-assembling amphipathic peptide S1v1, […], SEQ ID NO.1), LOX gene SEQ ID NO.6 (Q9I4G8 20-685, added parts left off): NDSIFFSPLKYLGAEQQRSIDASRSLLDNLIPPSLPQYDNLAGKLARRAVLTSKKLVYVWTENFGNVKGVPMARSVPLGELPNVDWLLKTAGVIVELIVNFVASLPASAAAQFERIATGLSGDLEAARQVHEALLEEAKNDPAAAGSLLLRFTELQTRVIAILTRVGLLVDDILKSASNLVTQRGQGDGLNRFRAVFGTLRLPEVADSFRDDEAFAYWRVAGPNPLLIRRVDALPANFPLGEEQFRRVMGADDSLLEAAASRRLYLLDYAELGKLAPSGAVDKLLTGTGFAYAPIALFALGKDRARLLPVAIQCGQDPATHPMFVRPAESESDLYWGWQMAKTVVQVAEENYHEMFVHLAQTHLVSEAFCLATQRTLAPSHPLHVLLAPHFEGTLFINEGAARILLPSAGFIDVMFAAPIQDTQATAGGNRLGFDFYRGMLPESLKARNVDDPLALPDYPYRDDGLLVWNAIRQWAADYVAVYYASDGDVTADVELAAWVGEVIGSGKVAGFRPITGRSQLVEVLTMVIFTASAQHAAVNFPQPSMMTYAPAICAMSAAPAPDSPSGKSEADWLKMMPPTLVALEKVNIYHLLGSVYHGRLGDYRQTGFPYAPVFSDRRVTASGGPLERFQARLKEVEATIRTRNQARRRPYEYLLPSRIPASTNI
Chain of Pseudomonas aeruginosa BBE lipoxygenase LOX-His (His-tag HHHHHH fusion), gene SEQ ID NO.6 (Q9I4G8 19-685, looked up, natural form): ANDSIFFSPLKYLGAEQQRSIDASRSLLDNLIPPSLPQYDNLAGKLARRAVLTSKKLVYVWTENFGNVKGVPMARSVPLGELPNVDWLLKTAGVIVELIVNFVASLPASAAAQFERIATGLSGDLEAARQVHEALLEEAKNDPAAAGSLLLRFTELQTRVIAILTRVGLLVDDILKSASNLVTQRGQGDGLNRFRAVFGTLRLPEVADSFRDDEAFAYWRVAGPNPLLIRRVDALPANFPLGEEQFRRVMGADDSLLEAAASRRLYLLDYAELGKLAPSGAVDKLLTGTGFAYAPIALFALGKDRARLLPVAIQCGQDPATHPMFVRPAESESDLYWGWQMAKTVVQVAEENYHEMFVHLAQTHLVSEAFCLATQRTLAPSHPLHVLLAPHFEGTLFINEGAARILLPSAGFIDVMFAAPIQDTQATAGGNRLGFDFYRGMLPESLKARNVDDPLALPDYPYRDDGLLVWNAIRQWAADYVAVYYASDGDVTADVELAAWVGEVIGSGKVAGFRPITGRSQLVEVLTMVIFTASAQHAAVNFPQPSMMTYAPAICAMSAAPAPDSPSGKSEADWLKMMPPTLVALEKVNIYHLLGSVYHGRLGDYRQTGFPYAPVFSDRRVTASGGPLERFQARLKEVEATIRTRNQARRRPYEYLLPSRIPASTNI
Chain of Pseudomonas aeruginosa BBE lipoxygenase (LOX, EC 1.13.11.12), wild-type, gene SEQ ID NO.6 (Q9I4G8 19-685, looked up, natural form): as above

In the case of `CCCCC/C=C\C/C=C\CCCCCCCC(=O)O` [linoleic acid, Linoleic acid], the Michaelis-Menten constant (Km) is 57 ± 1.2 µM in test [1], 83 ± 2 µM in test [2] (setting [5]) and 55 ± 2 µM in test [3]. Also, the kcat in test [1] came out at 24.77 ± 0.97 S^−1; in test [2] (setting [5]), 83.2 ± 3.25 S^−1; in test [3], 25.21 ± 1.02 S^−1. Moreover, in test [2] (fusion enzymes compared with wild-types, decrease in substrate affinity after S1v1 peptide fusion), the “Km value (in words)” value is recorded as “higher Km value”. For the same compound, the “catalytic efficiencies (kcat/Km) increase” value in test [2] (setting [4]) was 1.3 fold. In addition, the kcat value increase in test [2] (setting [4]) turned out to be 2.4 fold.
